Results: patent US10000507B2, “Furo- and thieno-pyridine carboxamide compounds useful as pim kinase inhibitors” (Incyte Corporation, priority 2013, dated 2018)

Experiments:
Format in all cases: biochemical
Pim-1 = Pim-1 (Homo sapiens (Human), UniProt P11309); test: Pim-1 kinase assay; conditions: 1 mM ATP, biotin-labeled BAD peptide substrate; read-out: Pim1 IC50
Procedure: (§1) Pim-1 and Pim-3 kinase assays-20 μL reactions were run in white 384 well polystyrene plates dotted with 0.8 μL compound/DMSO in the assay buffer (50 mM Tris, pH 7.5, 0.01% Tween-20, 5 mM MgCl2, 0.01% BSA, 5 mM DTT), containing […] Biotin-labeled BAD peptide substrate (AnaSpec 62269), 1 mM ATP, and 2.5 pM (Pim-1, Invitrogen PV3503) or 1.25 pM (Pim-3, Millipore 14-738) enzyme for 1 h at 25° C. Reactions were stopped by addition of 10 μL STOP Buffer (150 mM Tris, pH=7.5, 150 mM NaCl, 75 mM EDTA, 0.01% Tween-20, 0.3% BSA) supplemented with Phospho-Bad (Ser112) Antibody (Cell Signaling 9291) diluted 666-fold, and Streptavidin donor beads (PerkinElmer 6760002) along with Protein-A acceptor beads (PerkinElmer 6760137) at 15 μg/mL each. Supplementation of the STOP buffer with beads and stopping the reactions were done under reduced light. Prior to the stopping reactions STOP buffer with beads was pre-incubated for 1 h in the dark at room temperature. After stopping the reactions, plates were incubated for 1 h in the dark at room temperature before reading on a PHERAstar FS plate reader (BMG Labtech) under reduced light.

Pim-2 = Pim-2 (Homo sapiens (Human), UniProt Q9P1W9); test: Pim-2 kinase assay; conditions: 1 mM ATP, fluorescein-labeled CREBtide peptide substrate; read-out: Pim2 IC50
Pim-2, sequence (Q9P1W9 whole entry): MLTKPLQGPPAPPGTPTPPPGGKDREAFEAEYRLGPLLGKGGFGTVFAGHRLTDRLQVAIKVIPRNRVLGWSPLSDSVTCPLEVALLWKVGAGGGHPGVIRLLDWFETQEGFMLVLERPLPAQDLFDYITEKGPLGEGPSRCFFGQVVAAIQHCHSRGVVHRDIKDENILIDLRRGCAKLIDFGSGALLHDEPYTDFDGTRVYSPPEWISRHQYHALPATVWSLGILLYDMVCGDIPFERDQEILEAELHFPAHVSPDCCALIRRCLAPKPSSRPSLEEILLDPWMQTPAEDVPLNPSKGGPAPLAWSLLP
Procedure: Pim-2 kinase assay-20 μL reactions were run in white 384 well polystyrene plates dotted with 0.8 μL compound/DMSO in the assay buffer (50 mM Tris, pH 7.5, 0.01% Tween-20, 5 mM MgCl2, 0.01% BSA, 5 mM DTT), containing 0.05 μm Fluorescein-labeled CREBtide peptide substrate (Invitrogen PV3508), 1 mM ATP, and 1 nM enzyme (Invitrogen PV3649) for 2 h at 25° C. Reactions were stopped by addition of 10 μL TR-FRET Dilution Buffer (Invitrogen PV3574) with 30 mM EDTA and 1.5 nM LanthaScreen Tb-CREB pSer133 antibody (Invitrogen PV3566). After 30 min. incubation at room temperature, plates were read on a PHERAstar FS plate reader (BMG Labtech).

Pim-3 = Pim-3 (Homo sapiens (Human), UniProt Q86V86); test: Pim-3 kinase assay; conditions: 1 mM ATP, biotin-labeled BAD peptide substrate; read-out: Pim3 IC50
Procedure: as §1

Pim-1, sequence (P11309 whole entry): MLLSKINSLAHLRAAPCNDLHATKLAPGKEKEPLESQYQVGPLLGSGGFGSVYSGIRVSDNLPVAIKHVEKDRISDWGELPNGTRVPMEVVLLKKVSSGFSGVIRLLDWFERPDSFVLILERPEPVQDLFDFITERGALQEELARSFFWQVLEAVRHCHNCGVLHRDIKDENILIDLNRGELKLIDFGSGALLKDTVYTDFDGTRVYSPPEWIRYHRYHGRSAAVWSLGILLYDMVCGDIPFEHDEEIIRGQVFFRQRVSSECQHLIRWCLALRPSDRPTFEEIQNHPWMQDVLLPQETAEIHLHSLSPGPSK

In the case of Cn1ncc(NC(=O)c2c(N)sc3cc(-c4c(F)cccc4F)cnc23)c1N1CCCC(N)CC1 (stereo not drawn) [Example 27, 2-Amino-N-[5-(4-aminoazepan-1-yl)-1-methyl-1H-pyrazol-4-yl]-6-(2,6-difluorophenyl)-thieno[3,2-b]pyridine-3-carboxamide], the IC50 (Pim-1) is reported as ≤ 10 nM, the IC50 (Pim-2) is reported as 10 to 100 nM and the IC50 (Pim-3) is reported as ≤ 10 nM.

For Cc1noc(C)c1-c1cnc2c(C(=O)Nc3cnccc3N3CCC[C@H](N)C3)c(N)sc2c1 [Example 28, 2-Amino-N-{4-[(3S)-3-aminopiperidin-1-yl]pyridin-3-yl}-6-(3,5-dimethylisoxazol-4-yl)-thieno[3,2-b]pyridine-3-carboxamide], the IC50 (Pim-1) was ≤ 10 nM, the IC50 (Pim-2) was > 2000 nM and the IC50 (Pim-3) was > 40 nM.

Cc1noc(C)c1-c1cnc2c(C(=O)Nc3cnn(C)c3N3CCCC(N)CC3)c(N)sc2c1 (stereo not drawn) [Example 29, 2-Amino-N-[5-(4-aminoazepan-1-yl)-1-methyl-1H-pyrazol-4-yl]-6-(3,5-dimethylisoxazol-4-yl)-thieno[3,2-b]pyridine-3-carboxamide] was tested, and the IC50 (Pim-1) was ≤ 10 nM, the IC50 (Pim-2) was 100 to 1000 nM and the IC50 (Pim-3) was ≤ 10 nM.

With Cn1ncc(NC(=O)c2c(N)sc3cc(-c4nccs4)cnc23)c1N1CCCC(N)CC1 (stereo not drawn) [Example 30, 2-Amino-N-[5-(4-aminoazepan-1-yl)-1-methyl-1H-pyrazol-4-yl]-6-(1,3-thiazol-2-yl)-thieno[3,2-b]pyridine-3-carboxamide] the IC50 (Pim-1) was ≤ 10 nM, the IC50 (Pim-2) was 10 to 100 nM and the IC50 (Pim-3) was ≤ 10 nM.

In the case of CN1CC(c2cnc3c(C(=O)Nc4cnccc4N4CCC[C@H](N)C4)c(N)sc3c2)C1 [Example 31, 2-Amino-N-{4-[(3S)-3-aminopiperidin-1-yl]pyridin-3-yl}-6-(1-methylazetidin-3-yl)thieno[3,2-b]pyridine-3-carboxamide], the IC50 (Pim-1) is reported as ≤ 10 nM, the IC50 (Pim-2) is reported as 100 to 1000 nM and the IC50 (Pim-3) is reported as ≤ 10 nM.

For CN1CC(c2cnc3c(C(=O)Nc4cnn(C)c4N4CCCC(N)CC4)c(N)sc3c2)C1 (stereo not drawn) [Example 32, 2-Amino-N-[5-(4-aminoazepan-1-yl)-1-methyl-1H-pyrazol-4-yl]-6-(1-methylazetidin-3-yl)thieno[3,2-b]pyridine-3-carboxamide], the IC50 (Pim-1) was ≤ 10 nM, the IC50 (Pim-2) was 100 to 1000 nM and the IC50 (Pim-3) was ≤ 10 nM.

CC(C)N1CC(c2cnc3c(C(=O)Nc4cnccc4N4CCC[C@H](N)C4)c(N)sc3c2)C1 [Example 33, 2-Amino-N-{4-[(3S)-3-aminopiperidin-1-yl]pyridin-3-yl}-6-(1-isopropylazetidin-3-yl)thieno[3,2-b]pyridine-3-carboxamide] was tested, and the IC50 (Pim-1) was ≤ 10 nM, the IC50 (Pim-2) was > 2000 nM and the IC50 (Pim-3) was 10 to 100 nM.

In the case of COCc1cnc2c(C(=O)Nc3cnccc3N3CCC[C@H](N)C3)c(N)sc2c1 [Example 34, 2-Amino-N-{4-[(3S)-3-aminopiperidin-1-yl]pyridin-3-yl}-6-(methoxymethyl)thieno[3,2-b]pyridine-3-carboxamide], the IC50 (Pim-1) is reported as ≤ 10 nM, the IC50 (Pim-2) is reported as 100 to 1000 nM and the IC50 (Pim-3) is reported as ≤ 10 nM.

In the case of Nc1sc2cc(C3CCOCC3)cnc2c1C(=O)Nc1cnccc1N1CCC[C@H](N)C1 [Example 35, 2-Amino-N-{4-[(3S)-3-aminopiperidin-1-yl]pyridin-3-yl}-6-(tetrahydro-2H-pyran-4-yl)thieno[3,2-b]pyridine-3-carboxamide], the IC50 (Pim-1) is reported as ≤ 10 nM, the IC50 (Pim-2) is reported as 10 to 100 nM and the IC50 (Pim-3) is reported as ≤ 10 nM.

With Nc1sc2cc(F)cnc2c1C(=O)Nc1cnccc1N1CCC[C@H](N)C1 [Example 36, 2-Amino-N-{4-[(3S)-3-aminopiperidin-1-yl]pyridin-3-yl}-6-fluoro-thieno[3,2-b]pyridine-3-carboxamide] the IC50 (Pim-1) was ≤ 10 nM, the IC50 (Pim-2) was 100 to 1000 nM and the IC50 (Pim-3) was ≤ 10 nM.

Cn1ncc(NC(=O)c2c(N)sc3cc(F)cnc23)c1N1CCCC(N)CC1 (stereo not drawn) [Example 37, 2-Amino-N-[5-(4-aminoazepan-1-yl)-1-methyl-1H-pyrazol-4-yl]-6-fluoro-thieno[3,2-b]pyridine-3-carboxamide] was tested, and the IC50 (Pim-1) was ≤ 10 nM, the IC50 (Pim-2) was 100 to 1000 nM and the IC50 (Pim-3) was ≤ 10 nM.

For Nc1sc2c(C(F)(F)F)ccnc2c1C(=O)Nc1cnccc1N1CCC[C@H](N)C1 [Example 38, 2-Amino-N-{4-[(3S)-3-aminopiperidin-1-yl]pyridin-3-yl}-7-trifluoromethyl-thieno[3,2-b]pyridine-3-carboxamide], the IC50 (Pim-1) was ≤ 10 nM, the IC50 (Pim-2) was 100 to 1000 nM and the IC50 (Pim-3) was ≤ 10 nM.

Cn1ncc(NC(=O)c2c(N)sc3ccc(Cl)nc23)c1N1CCCC(N)CC1 (stereo not drawn) [Example 39, 2-Amino-N-[5-(4-aminoazepan-1-yl)-1-methyl-1H-pyrazol-4-yl]-5-chlorothieno[3,2-b]pyridine-3-carboxamide] was tested, and the IC50 (Pim-1) was ≤ 10 nM, the IC50 (Pim-2) was 100 to 1000 nM and the IC50 (Pim-3) was ≤ 10 nM.

In the case of Cn1ncc(NC(=O)c2c(N)sc3ccc(Cl)nc23)c1N1CCC[C@H](N)C1 [Example 41, 2-Amino-N-{5-[(3S)-3-aminopiperidin-1-yl]-1-methyl-1H-pyrazol-4-yl}-5-chlorothieno[3,2-b]pyridine-3-carboxamide], the IC50 (Pim-1) is reported as ≤ 10 nM, the IC50 (Pim-2) is reported as 100 to 1000 nM and the IC50 (Pim-3) is reported as ≤ 10 nM.

Cc1ccc2sc(N)c(C(=O)Nc3cnn(C)c3N3CCCC(N)CC3)c2n1 (stereo not drawn) [Example 43, 2-Amino-N-[5-(4-aminoazepan-1-yl)-1-methyl-1H-pyrazol-4-yl]-5-methylthieno[3,2-b]pyridine-3-carboxamide] was tested, and the IC50 (Pim-1) was ≤ 10 nM, the IC50 (Pim-2) was > 1000 nM and the IC50 (Pim-3) was 10 to 100 nM.

For Cn1ncc(NC(=O)c2c(N)sc3ccc(-c4ccccc4)nc23)c1N1CCCC(N)CC1 (stereo not drawn) [Example 44, 2-Amino-N-[5-(4-aminoazepan-1-yl)-1-methyl-1H-pyrazol-4-yl]-5-phenylthieno[3,2-b]pyridine-3-carboxamide], the IC50 (Pim-1) was ≤ 10 nM, the IC50 (Pim-2) was > 2000 nM and the IC50 (Pim-3) was ≤ 10 nM.

Nc1oc2cccnc2c1C(=O)Nc1cnccc1N1CCC[C@H](N)C1 [Example 45, 2-Amino-N-{4-[(3S)-3-aminopiperidin-1-yl]pyridin-3-yl}furo[3,2-b]pyridine-3-carboxamide] was tested, and the IC50 (Pim-1) was ≤ 10 nM, the IC50 (Pim-2) was 100 to 1000 nM and the IC50 (Pim-3) was ≤ 10 nM.

With Cn1ncc(NC(=O)c2c(N)oc3cccnc23)c1N1CCCC(N)CC1 (stereo not drawn) [Example 46, 2-Amino-N-[5-(4-aminoazepan-1-yl)-1-methyl-1H-pyrazol-4-yl]furo[3,2-b]pyridine-3-carboxamide] the IC50 (Pim-1) was ≤ 10 nM, the IC50 (Pim-2) was > 2000 nM and the IC50 (Pim-3) was 10 to 100 nM.

With CCc1cnc2c(C(=O)Nc3cnccc3N3CCC[C@H](N)C3)c(N)oc2c1 [Example 47, 2-Amino-N-{4-[(3S)-3-aminopiperidin-1-yl]pyridin-3-yl}-6-ethylfuro[3,2-b]pyridine-3-carboxamide] the IC50 (Pim-1) was ≤ 10 nM, the IC50 (Pim-2) was 10 to 100 nM and the IC50 (Pim-3) was ≤ 10 nM.

Nc1oc2cc(C(F)(F)F)cnc2c1C(=O)Nc1cnccc1N1CCC[C@H](N)C1 [Example 48, 2-amino-N-{4-[(3S)-3-aminopiperidin-1-yl]pyridin-3-yl}-6-(trifluoromethyl)furo[3,2-b]pyridine-3-carboxamide] was tested, and the IC50 (Pim-1) was ≤ 10 nM, the IC50 (Pim-2) was 10 to 100 nM and the IC50 (Pim-3) was ≤ 10 nM.

Cc1cnc2c(C(=O)Nc3cnccc3N3CCC[C@H](N)C3)c(N)oc2c1 [Example 49, 2-amino-N-{4-[(3S)-3-aminopiperidin-1-yl]pyridin-3-yl}-6-methyl-furo[3,2-b]pyridine-3-carboxamide] was tested, and the IC50 (Pim-1) was ≤ 10 nM, the IC50 (Pim-2) was 10 to 100 nM and the IC50 (Pim-3) was ≤ 10 nM.

CC(C)c1cnc2c(C(=O)Nc3cnccc3N3CCC[C@H](N)C3)c(N)oc2c1 [Example 50, 2-amino-N-{4-[(3S)-3-aminopiperidin-1-yl]pyridin-3-yl}-6-(iso-propyl)furo[3,2-b]pyridine-3-carboxamide] was tested, and the IC50 (Pim-1) was ≤ 10 nM, the IC50 (Pim-2) was 10 to 100 nM and the IC50 (Pim-3) was ≤ 10 nM.

With CCCc1cnc2c(C(=O)Nc3cnccc3N3CCC[C@H](N)C3)c(N)oc2c1 [Example 51, 2-amino-N-{4-[(3S)-3-aminopiperidin-1-yl]pyridin-3-yl}-6-(propyl)furo[3,2-b]pyridine-3-carboxamide] the IC50 (Pim-1) was ≤ 10 nM, the IC50 (Pim-2) was 10 to 100 nM and the IC50 (Pim-3) was ≤ 10 nM.

For Nc1oc2cc(F)cnc2c1C(=O)Nc1cnccc1N1CCC[C@H](N)C1 [Example 52, 2-amino-N-{4-[(3S)-3-aminopiperidin-1-yl]pyridin-3-yl}-6-fluoro-furo[3,2-b]pyridine-3-carboxamide], the IC50 (Pim-1) was ≤ 10 nM, the IC50 (Pim-2) was 100 to 1000 nM and the IC50 (Pim-3) was ≤ 10 nM.

With Nc1oc2cc(Cl)cnc2c1C(=O)Nc1cnccc1N1CCC[C@H](N)C1 [Example 53, 2-amino-N-{4-[(3S)-3-aminopiperidin-1-yl]pyridin-3-yl}-6-chloro-furo[3,2-b]pyridine-3-carboxamide] the IC50 (Pim-1) was ≤ 10 nM, the IC50 (Pim-2) was 10 to 100 nM and the IC50 (Pim-3) was ≤ 10 nM.
